Results as given in patent publication US9096548B2, “Pyrazine amide compounds” (Boehringer Ingelheim International GmbH, priority 2013, dated 2015).

target: T1, ENaC (Epithelial Sodium Channel) (Mus musculus, UniProt Q61180+Q9WU38+Q9WU39); assay: Ussing Chamber assay (short circuit current, amiloride sensitive I_SC); type: cell-based; details: Ussing chamber, mouse kidney M-1 cells, short circuit current, compound added to the apical solution; read-out: IC50
T1 construct: Mouse kidney M−1 cells were cultivated in DMEM; endogenous in cells; host or cells: Mouse kidney M-1 cells, cultivated with dexamethasone on transwell filters
T1 sequence (Q61180 1-699): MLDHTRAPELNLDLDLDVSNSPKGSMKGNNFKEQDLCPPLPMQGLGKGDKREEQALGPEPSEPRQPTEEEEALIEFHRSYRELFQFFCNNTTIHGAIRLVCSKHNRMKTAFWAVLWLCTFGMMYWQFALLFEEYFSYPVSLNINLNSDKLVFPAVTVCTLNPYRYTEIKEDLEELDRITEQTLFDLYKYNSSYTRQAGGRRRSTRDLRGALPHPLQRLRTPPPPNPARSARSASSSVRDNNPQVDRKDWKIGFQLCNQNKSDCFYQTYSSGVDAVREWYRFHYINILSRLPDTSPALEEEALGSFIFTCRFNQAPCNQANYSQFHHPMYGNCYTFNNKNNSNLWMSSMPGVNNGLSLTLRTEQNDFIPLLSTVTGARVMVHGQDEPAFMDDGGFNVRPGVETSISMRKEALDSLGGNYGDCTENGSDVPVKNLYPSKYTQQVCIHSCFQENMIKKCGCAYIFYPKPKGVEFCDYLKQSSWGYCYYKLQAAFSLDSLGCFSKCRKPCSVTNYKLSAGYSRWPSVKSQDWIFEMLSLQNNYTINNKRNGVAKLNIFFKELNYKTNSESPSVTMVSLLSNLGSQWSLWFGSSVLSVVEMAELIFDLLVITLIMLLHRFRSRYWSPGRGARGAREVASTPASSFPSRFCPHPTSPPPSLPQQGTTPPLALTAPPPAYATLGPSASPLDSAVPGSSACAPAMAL
T1 sequence (Q9WU38 1-638): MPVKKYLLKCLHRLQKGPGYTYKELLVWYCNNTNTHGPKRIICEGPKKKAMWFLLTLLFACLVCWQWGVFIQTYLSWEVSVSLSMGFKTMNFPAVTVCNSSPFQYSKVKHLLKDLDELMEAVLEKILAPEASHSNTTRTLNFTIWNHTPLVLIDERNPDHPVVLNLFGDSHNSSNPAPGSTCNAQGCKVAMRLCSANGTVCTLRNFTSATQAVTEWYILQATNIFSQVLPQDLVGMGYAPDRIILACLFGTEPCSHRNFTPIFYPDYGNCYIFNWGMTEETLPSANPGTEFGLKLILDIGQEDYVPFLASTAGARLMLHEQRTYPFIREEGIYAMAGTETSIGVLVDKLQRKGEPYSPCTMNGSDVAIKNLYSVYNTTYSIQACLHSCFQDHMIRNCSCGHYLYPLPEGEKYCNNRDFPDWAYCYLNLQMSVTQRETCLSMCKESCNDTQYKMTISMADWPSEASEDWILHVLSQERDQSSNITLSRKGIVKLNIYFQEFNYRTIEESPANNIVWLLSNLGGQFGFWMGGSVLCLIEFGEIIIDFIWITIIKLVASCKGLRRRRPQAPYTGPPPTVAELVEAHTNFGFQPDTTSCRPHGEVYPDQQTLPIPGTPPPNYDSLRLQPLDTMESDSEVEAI
T1 sequence (Q9WU39 1-655): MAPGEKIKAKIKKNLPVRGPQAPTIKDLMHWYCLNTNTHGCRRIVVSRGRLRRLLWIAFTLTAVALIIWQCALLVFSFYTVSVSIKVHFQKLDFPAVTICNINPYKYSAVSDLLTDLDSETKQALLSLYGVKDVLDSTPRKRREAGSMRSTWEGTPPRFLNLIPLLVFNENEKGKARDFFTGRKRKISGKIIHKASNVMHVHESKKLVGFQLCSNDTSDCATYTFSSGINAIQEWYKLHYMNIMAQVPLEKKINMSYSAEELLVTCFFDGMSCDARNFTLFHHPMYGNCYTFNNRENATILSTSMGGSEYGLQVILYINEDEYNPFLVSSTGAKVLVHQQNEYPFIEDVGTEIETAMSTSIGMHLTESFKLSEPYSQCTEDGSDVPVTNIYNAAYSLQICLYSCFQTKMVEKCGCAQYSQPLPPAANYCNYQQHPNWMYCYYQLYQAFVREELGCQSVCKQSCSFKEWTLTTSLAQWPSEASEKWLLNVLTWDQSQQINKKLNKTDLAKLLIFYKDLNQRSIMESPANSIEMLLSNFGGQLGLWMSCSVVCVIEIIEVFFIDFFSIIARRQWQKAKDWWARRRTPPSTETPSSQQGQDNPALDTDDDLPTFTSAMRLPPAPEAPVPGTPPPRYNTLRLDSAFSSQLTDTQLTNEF
Procedure: The IC50 values of the example compounds given above were determined in the Ussing Chamber assay.
Ussing Chamber: Mouse kidney M−1 cells were cultivated in DMEM containing 5% FCS and 5 μM dexamethasone for 10 to 12 days on polyester transwell filters. Filters were inserted into a teflon-coated well-plate which fit into the ussing chamber system. Prior to measurement the medium of M−1 cells was replaced with Caco-2 transport buffer (Invitrogen, Germany). During measurements, the Ussing chamber temperature was kept at 37° C. Short circuit currents (I_sc) were measured in the voltage-clamp mode with the software package Lab View for data acquisition and analysis. The transepithelial electrical resistance (TEER) was determined by the application of voltage steps of ±5 mV every 5 sec. Compounds were administered at a final concentration of 3 μM or at increasing concentrations (1-3-10 μM) to the apical solution. At the end of each experiment the amiloride sensitive I_SC was measured by adding 3 μM amiloride to the apical compartment. Results are expressed as inhibition in percent of the amiloride effect or as IC50.

Compared with Nc1nc(N)c(C(=O)N[C@H]2CCC[N+](CCCc3ccc(OCC(=O)NCCn4ccnc4)cc3)(CCCc3ccc(OCC(=O)NCCn4ccnc4)cc3)C2)nc1Cl [6.15], COc1ccc(CCC[N+]2(CCCc3ccc(OC)cc3)CCC[C@H](NC(=O)c3nc(Cl)c(N)nc3N)C2)cc1 [Example 1.4] is 2.2-fold lower in IC50: 0.009 µM for the first, 0.004 µM for the second.

COc1ccc(CCC[N+]2(CCCc3ccc(OC)cc3)CCC(NC(=O)c3nc(Cl)c(N)nc3N)C2)cc1 (stereo not drawn) [Example 1.1] and COc1ccc(CCC[N+]2(CCCc3ccc(OC)cc3)CCC[C@@H](NC(=O)c3nc(Cl)c(N)nc3N)C2)cc1 [Example 1.5] are within 1.5-fold of each other in IC50: 0.03 µM for the first, 0.038 µM for the second.

Going from COc1ccc(CCC[N+]2(CCCc3ccc(OC)cc3)CC(NC(=O)c3nc(Cl)c(N)nc3N)[C@H](c3ccc(C)cc3)C2)cc1 (stereo partly drawn) [Example 1.2] to COc1ccc(CCC[N+]2(CCCc3ccc(OC)cc3)CCCCC(NC(=O)c3nc(Cl)c(N)nc3N)C2)cc1 (stereo not drawn) [Example 1.3], the IC50 falls from 0.2 µM to 0.044 µM (4.5-fold). The second is the more potent here.

First: COc1ccc(CCC[N+](C)(CCCc2ccc(OC)cc2)[C@@H]2C[C@H]2NC(=O)c2nc(Cl)c(N)nc2N)cc1 [Example 2.1]
Second: COc1ccc(CCC[N+](C)(CCCc2ccc(OC)cc2)C[C@H](C)NC(=O)c2nc(Cl)c(N)nc2N)cc1 [Example 2.2]
The IC50 of the first is 1.6-fold lower: 0.08 µM for the first, 0.13 µM for the second.

First: COc1ccc(CCC[N+](C)(CCCc2ccc(OC)cc2)CC(C)(C)NC(=O)c2nc(Cl)c(N)nc2N)cc1 [Example 2.3]
Second: COc1ccc(CCC[N+]2(CCCc3ccc(C(N)=O)cc3)CCCC(NC(=O)c3nc(Cl)c(N)nc3N)C2)cc1 (stereo not drawn) [Example 5.6]
The IC50 of the first is 20-fold higher: 0.51 µM for the first, 0.025 µM for the second. The second is the more potent here.

Compared with COc1ccc(CCC[N@+]2(C)CCC[C@H](NC(=O)c3nc(Cl)c(N)nc3N)C2)cc1 [Example 3.1], COc1ccc(CCC[N@@+]2(C)CCC[C@H](NC(=O)c3nc(Cl)c(N)nc3N)C2)cc1 [Example 3.2] is 11-fold lower in IC50: 0.75 µM for the first, 0.07 µM for the second. The second is the more potent here.

First: COc1ccc(CCC[N+]2(CCCC3CCCCC3)CCCC(NC(=O)c3nc(Cl)c(N)nc3N)C2)cc1 (stereo not drawn) [Example 3.3]
Second: COc1ccc(CCC[N+]2(CCCc3ccccc3)CCCC(NC(=O)c3nc(Cl)c(N)nc3N)C2)cc1 (stereo not drawn) [Example 3.5]
The IC50 of the first is 16-fold higher: 0.099 µM for the first, 0.006 µM for the second. The second is the more potent here.

Going from COc1ccc(CCC[N+]2(CCCCc3ccccc3)CCCC(NC(=O)c3nc(Cl)c(N)nc3N)C2)cc1 (stereo not drawn) [Example 3.4] to COc1ccc(CCC[N+]2(CCc3ccccc3)CCCC(NC(=O)c3nc(Cl)c(N)nc3N)C2)cc1 (stereo not drawn) [Example 3.6], the IC50 rises from 0.034 µM to 0.06 µM (1.8-fold).

Going from COc1ccc(CCC[N+]2(Cc3ccccc3)CCCC(NC(=O)c3nc(Cl)c(N)nc3N)C2)cc1 (stereo not drawn) [Example 3.7] to COc1ccc(CCC[N+]2(CCCc3ccc(C(=O)NCCCN(C)C)cc3)CCCC(NC(=O)c3nc(Cl)c(N)nc3N)C2)cc1 (stereo not drawn) [Example 5.7], the IC50 falls from 0.14 µM to 0.02 µM (7-fold). The second is the more potent here.

First: COc1ccc(CCC[N+]2(C)CC(NC(=O)c3nc(Cl)c(N)nc3N)[C@H](c3ccc(C)cc3)C2)cc1 (stereo partly drawn) [Example 3.8]
Second: COc1ccc(CCC[N+]2(CCCc3ccc(C(=O)NCCCS(=O)(=O)O)cc3)CCCC(NC(=O)c3nc(Cl)c(N)nc3N)C2)cc1 (stereo not drawn) [Example 5.4]
The IC50 of the first is 2.3-fold higher: 0.6 µM for the first, 0.26 µM for the second.

COc1ccc(CCC[N+]2(CCCc3ccc(C(=O)N(CCCN(C)C)CCCN(C)C)cc3)CCCC(NC(=O)c3nc(Cl)c(N)nc3N)C2)cc1 (stereo not drawn) [Example 5.3] and COc1ccc(CCC[N+]2(CCCc3ccc(C(=O)NCCOCCOCCO)cc3)CCCC(NC(=O)c3nc(Cl)c(N)nc3N)C2)cc1 (stereo not drawn) [Example 5.5] are within 1.5-fold of each other in IC50: 0.055 µM for the first, 0.07 µM for the second.

same assay, conditions: Ussing chamber, mouse kidney M-1 cells, short circuit current; unit inferred; read-out: IC50

Molecule COc1ccc(CCC[N+](C)(CCCc2ccc(OC)cc2)CC(NC(=O)c2nc(Cl)c(N)nc2N)c2ccccc2)cc1 (stereo not drawn) [Example 2, {2-[(3,5-Diamino-6-chloro-pyrazine-2-carbonyl)-amino]-2-phenyl-ethyl}-bis-[3-(4-methoxy-phenyl)-propyl]-methyl-ammonium chloride] has an IC50 of 0.03 µM.

same assay, conditions: Ussing chamber, mouse kidney M-1 cells, short circuit current; value printed in the example text with μM; read-out: IC50

Compared with COc1ccc(CCC[N+]2(C)CCC(NC(=O)c3nc(Cl)c(N)nc3N)C2)cc1 (stereo not drawn) [Example 3, 3-[(3,5-Diamino-6-chloro-pyrazine-2-carbonyl)-amino]-1-[3-(4-methoxy-phenyl)-propyl]-1-methyl-pyrrolidinium chloride], COc1ccc(CCC[N+]2(CCCc3ccc(C(=O)[O-])cc3)CCCC(NC(=O)c3nc(Cl)c(N)nc3N)C2)cc1 (stereo not drawn) [Example 5.1, 1-[3-(4-Carboxy-phenyl)-propyl]-3-[(3,5-diamino-6-chloro-pyrazine-2-carbonyl)-amino]-1-[3-(4-methoxy-phenyl)-propyl]-piperidinium] is 7.2-fold lower in IC50: 0.79 µM for the first, 0.11 µM for the second.

Compared with COC(=O)c1ccc(CCC[N+]2(CCCc3ccc(C(=O)OC)cc3)CCCC(NC(=O)c3nc(Cl)c(N)nc3N)C2)cc1 (stereo not drawn) [Example 4, 3-[(3,5-Diamino-6-chloro-pyrazine-2-carbonyl)-amino]-1,1-bis-[3-(4-methoxycarbonylphenyl)-propyl]-piperidinium chloride], COC(=O)c1ccc(CCC[N+]2(CCCc3ccc(OC)cc3)CCCC(NC(=O)c3nc(Cl)c(N)nc3N)C2)cc1 (stereo not drawn) [Example 5, 3-[(3,5-Diamino-6-chloro-pyrazine-2-carbonyl)-amino]-1-[3-(4-methoxycarbonyl-phenyl)propyl]-1-[3-(4-methoxy-phenyl)-propyl]-piperidinium chloride] is 8.9-fold lower in IC50: 0.34 µM for the first, 0.038 µM for the second. The second is the more potent here.

First: Nc1nc(N)c(C(=O)NC2CCC[N+](CCCc3ccc(C(=O)[O-])cc3)(CCCc3ccc(C(=O)O)cc3)C2)nc1Cl (stereo not drawn) [Example 4.1, 1,1-Bis-[3-(4-carboxy-phenyl)-propyl]-3-[(3,5-diamino-6-chloro-pyrazine-2-carbonyl)amino]-piperidinium]
Second: COC(=O)CNC(=O)c1ccc(CCC[N+]2(CCCc3ccc(OC)cc3)CCCC(NC(=O)c3nc(Cl)c(N)nc3N)C2)cc1 (stereo not drawn) [Example 5.2, 3-[(3,5-Diamino-6-chloro-pyrazine-2-carbonyl)-amino]-1-{3-[4-(methoxycarbonylmethylcarbamoyl)-phenyl]-propyl}-1-[3-(4-methoxy-phenyl)-propyl]-piperidinium chloride]
The IC50 of the first is 8.3-fold higher: 0.35 µM for the first, 0.042 µM for the second.

Work on Nc1nc(N)c(C(=O)NC2CCC[N+](CCCc3ccc(C(=O)NCCOCCOCCO)cc3)(CCCc3ccc(C(=O)NCCOCCOCCO)cc3)C2)nc1Cl (stereo not drawn) [Example 4.2, 3-[(3,5-Diamino-6-chloro-pyrazine-2-carbonyl)-amino]-1,1-bis-[3-(4-{2-[2-(2-hydroxyethoxy)-ethoxy)]-ethylcarbamoyl}-phenyl)-propyl]-piperidinium chloride] yielded an IC50 of 0.76 µM.
